Results reported in the supplement of paper PMC10331698.
± gives the standard deviation of the averaged measurements.

What was measured:
Experiment in all cases: level (log10 ratio to DMSO vehicle control); higher = higher biomarker level / cell amount than vehicle control
Conditions in all cases: in DMSO
[1] = compound: O=S(=O)(O)C(F)(F)C(F)(F)C(F)(F)C(F)(F)C(F)(F)C(F)(F)C(F)(F)C(F)(F)C(F)(F)C(F)(F)F [Sodium perfluorodecanesulfonate]
Description: (§1)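 BioMAP Diversity Plus panel of 12 human primary cell co-culture systems (3C, 4H, LPS, SAg, BT, BF4T, BE3C, CASM3C, HDF3CGF, KF3CT, MyoF, Mphg). Compounds were added 1 h before stimulation and left for 24 h (MyoF 48 h; BT 72 h for soluble read-outs or 6 d for IgG). Biomarkers were read by ELISA, cytotoxicity by SRB, PBMC viability and proliferation by Alamar Blue. Each well value was divided by the mean of 8 DMSO control wells on the same plate and log10 transformed; duplicate blinded samples were tested at 4 concentrations.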

[2] = compound: O=C(O)C=CC(F)(C(F)(F)F)C(F)(F)F [3-(Perfluoroisopropyl)-2-propenoic acid]
Description: as §1

[3] = compound: O=S(=O)(F)C(F)(F)C(F)(F)C(F)(F)C(F)(F)C(F)(F)C(F)(F)C(F)(F)C(F)(F)F [Perfluorooctanesulfonyl fluoride]
Description: as §1

Nonafluoropentanamide = compound: NC(=O)C(F)(F)C(F)(F)C(F)(F)C(F)(F)F [Nonafluoropentanamide]
Description: as §1

Hexafluoroamylene glycol = compound: OCC(F)(F)C(F)(F)C(F)(F)CO [Hexafluoroamylene glycol]
Description: as §1

[4] = compound: COC(=O)C(F)(F)C(F)(F)OC(F)(C(F)(F)F)C(F)(F)OC(F)=C(F)F [Methyl perfluoro(3-(1-ethenyloxypropan-2-yloxy)propanoate)]
Description: as §1

| Test System | level (log10) ([1]; 1500 nM) | level (log10) ([1]; 4400 nM) | level (log10) ([1]; 13000 nM) | level (log10) ([1]; 40000 nM) | level (log10) ([2]; 6700 nM) | level (log10) ([2]; 20000 nM) | level (log10) ([2]; 60000 nM) | level (log10) ([3]; 6700 nM) | level (log10) ([3]; 20000 nM) | level (log10) ([3]; 60000 nM) | level (log10) (Nonafluoropentanamide; 6700 nM) | level (log10) (Nonafluoropentanamide; 20000 nM) | level (log10) (Nonafluoropentanamide; 60000 nM) | level (log10) (Hexafluoroamylene glycol; 6700 nM) | level (log10) (Hexafluoroamylene glycol; 20000 nM) | level (log10) (Hexafluoroamylene glycol; 60000 nM) | level (log10) ([4]; 6700 nM) | level (log10) ([4]; 20000 nM) |
| --- | --- | --- | --- | --- | --- | --- | --- | --- | --- | --- | --- | --- | --- | --- | --- | --- | --- | --- |
| LPS:CD40 | -0.017 ± 0.024 | -0.028 ± 0.0099 | -0.0525 ± 0.0078 | -0.242 ± 0.026 | -0.008 ± 0.0085 | 0.008 ± 0.048 | -0.017 ± 0.079 | 0.031 ± 0.12 | 0.0455 ± 0.094 | 0.033 ± 0.1 | 0.002 ± 0.038 | -0.008 ± 0.068 | 0.0015 ± 0.035 | 0.035 ± 0.024 | 0.0385 ± 0.04 | 0.028 ± 0.04 | 0.0235 ± 0.035 | -0.0365 ± 0.022 |
| LPS:CD62E/E-Selectin | -0.019 ± 0.02 | -0.045 ± 0.059 | -0.0425 ± 0.069 | -0.084 ± 0.076 | 0.0055 ± 0.015 | -0.013 ± 0.0042 | 0.0165 ± 0.0035 | 0.008 ± 0.0028 | 0.0015 ± 0.0064 | -0.002 ± 0.011 | 0.003 ± 0.0042 | 0.0175 ± 0.005 | 0.0215 ± 0.029 | 0.023 ± 0.024 | -0.007 ± 0.023 | -0.0125 ± 0.0064 | -0.0165 ± 0.0035 | -0.0085 ± 0.00071 |
| LPS:CD69 | -0.028 ± 0.021 | -0.045 ± 0.011 | -0.0585 ± 0.00071 | -0.16 ± 0.054 | -0.0365 ± 0.025 | -0.0375 ± 0.00071 | -0.0255 ± 0.023 | -0.019 ± 0.031 | -0.0135 ± 0.0092 | -0.0335 ± 0.011 | -0.0545 ± 0.046 | -0.042 ± 0.05 | -0.001 ± 0.025 | -0.028 ± 0.085 | -0.038 ± 0.03 | -0.041 ± 0.067 | -0.0435 ± 0.0078 | -0.053 ± 0.013 |
| LPS:CD106/VCAM-1 | -0.0045 ± 0.029 | 0.0035 ± 0.0078 | -0.0265 ± 0.035 | -0.076 ± 0.0028 | 0.003 ± 0.018 | -0.023 ± 0.013 | -0.018 ± 0.021 | 0.0025 ± 0.011 | -0.0125 ± 0.00071 | 0.007 ± 0.0085 | -0.0075 ± 0.028 | -0.0135 ± 0.005 | 0.0035 ± 0.011 | -0.0215 ± 0.054 | -0.03 ± 0.064 | -0.0055 ± 0.059 | -0.066 ± 0.013 | -0.0805 ± 0.0064 |
| LPS:CD141/Thrombomodulin | -0.0315 ± 0.0064 | 0.0015 ± 0.046 | -0.021 ± 0.0071 | 0.071 ± 0.047 | -0.024 ± 0.037 | -0.022 ± 0.0057 | -0.036 ± 0.02 | 0.0105 ± 0.025 | 0.0045 ± 0.0078 | 0.0055 ± 0.012 | 0.005 ± 0.027 | 0.018 ± 0.035 | 0.0435 ± 0.035 | 0.0715 ± 0.097 | 0.035 ± 0.023 | 0.06 ± 0.064 | -0.05 ± 0.0099 | -0.071 ± 0.027 |
| LPS:CD142/Tissue Factor | -0.0155 ± 0.043 | -0.011 ± 0.021 | -0.06 ± 0.0042 | -0.177 ± 0.1 | 0.0105 ± 0.0078 | -0.021 ± 0.025 | 0.006 ± 0.021 | -0.0015 ± 0.0064 | 0.018 ± 0.011 | -0.0065 ± 0.019 | 0.0085 ± 0.019 | 0.0165 ± 0.0078 | -0.013 ± 0.017 | 0.0025 ± 0.087 | 0.041 ± 0.081 | 0.021 ± 0.082 | -0.0235 ± 0.00071 | 0.009 ± 0.011 |
| LPS:CXCL8/IL-8 | -0.022 ± 0.025 | 0.032 ± 0.018 | 0.0335 ± 0.054 | -0.176 ± 0.016 | -0.0055 ± 0.019 | -0.0205 ± 0.023 | -0.0015 ± 0.019 | 0.012 ± 0.027 | 0.011 ± 0.0099 | -0.0015 ± 0.005 | -0.034 ± 0.028 | -0.002 ± 0.034 | 0.032 ± 0.052 | 0.025 ± 0.076 | 0.026 ± 0.0057 | 0.0885 ± 0.037 | 0.019 ± 0.0042 | 0.0355 ± 0.019 |
| LPS:IL-1alpha | 0.0145 ± 0.026 | -0.0335 ± 0.032 | -0.004 ± 0.041 | -0.178 ± 0.1 | 0.025 ± 0.034 | 0.0195 ± 0.05 | 0.0605 ± 0.023 | 0.0065 ± 0.015 | 0.024 ± 0.016 | 0.0105 ± 0.012 | -0.1 ± 0.011 | -0.102 ± 0.0099 | -0.0555 ± 0.0092 | 0.047 ± 0.035 | -0.0045 ± 0.0035 | 0.03 ± 0.048 | 0.0045 ± 0.022 | 0.0515 ± 0.011 |
| LPS:M-CSF | 0.0045 ± 0.021 | 0.005 ± 0.0057 | 0.01 ± 0.027 | -0.006 ± 0.037 | -0.011 ± 0.041 | -0.0065 ± 0.0092 | 0.0035 ± 0.0035 | -0.005 ± 0.021 | 0.0045 ± 0.0092 | 0.006 ± 0.017 | 0.0065 ± 0.07 | -0.0075 ± 0.04 | -0.011 ± 0.0042 | -0.0075 ± 0.016 | 0.0115 ± 0.0078 | -0.003 ± 0.035 | -0.0065 ± 0.013 | -0.0105 ± 0.0064 |
| LPS:SRB | 0.0025 ± 0.0021 | -0.001 ± 0.0057 | -0.0105 ± 0.00071 | -0.02 ± 0.017 | -0.0015 ± 0.018 | -0.011 ± 0.016 | -0.0115 ± 0.028 | -0.008 ± 0.0071 | -0.0025 ± 0.0064 | -0.002 ± 0.013 | 0.0015 ± 0.011 | -0.0065 ± 0.005 | -0.003 ± 0.0042 | -0.004 ± 0.0028 | -0.0095 ± 0.015 | 0.002 ± 0.018 | -0.012 | -0.0085 ± 0.0078 |
| LPS:sTNF-alpha | -0.0135 ± 0.0078 | -0.0375 ± 0.059 | -0.162 ± 0.0085 | -0.42 ± 0.052 | 0.003 ± 0.1 | 0.0345 ± 0.057 | 0.0395 ± 0.03 | -0.009 ± 0.0057 | 0 ± 0.0014 | -0.0015 ± 0.013 | 0.018 ± 0.037 | 0.0125 ± 0.0092 | -0.043 ± 0.013 | 0.0025 ± 0.012 | -0.009 ± 0.014 | -0.001 ± 0.0099 | 0.0115 ± 0.046 | 0.0395 ± 0.019 |
| MyoF:CD106/VCAM-1 | 0.0005 ± 0.013 | -0.0005 ± 0.013 | -0.01 ± 0.0014 | -0.035 ± 0.0085 | 0.006 ± 0.011 | 0.0035 ± 0.00071 | -0.0035 ± 0.0035 | -0.0105 ± 0.00071 | -0.0105 ± 0.005 | -0.0185 ± 0.011 | -0.016 ± 0.0014 | -0.003 | 0.0055 ± 0.016 | -0.0015 ± 0.0092 | -0.022 ± 0.02 | -0.0045 ± 0.015 | -0.03 ± 0.0014 | -0.0365 ± 0.019 |
| MyoF:CXCL8/IL-8 | -0.04 ± 0.0071 | -0.039 ± 0.0071 | -0.021 ± 0.023 | 0.02 ± 0.044 | -0.0445 ± 0.0064 | -0.032 ± 0.0028 | -0.0025 ± 0.019 | 0.0095 ± 0.0021 | 0.023 ± 0.0042 | 0.0325 ± 0.032 | -0.0255 ± 0.00071 | -0.01 ± 0.024 | 0.0125 ± 0.015 | -0.0385 ± 0.028 | -0.0325 ± 0.018 | 0.001 ± 0.075 | 0.083 ± 0.04 | 0.154 ± 0.034 |
| MyoF:Collagen I | -0.003 ± 0.02 | -0.006 ± 0.0028 | -0.003 ± 0.0057 | -0.0415 ± 0.00071 | -0.0025 ± 0.012 | -0.002 ± 0.0042 | 0.002 ± 0.0085 | 0.0005 ± 0.0035 | -0.005 ± 0.0099 | 0.003 ± 0.016 | -0.015 ± 0.025 | -0.0085 ± 0.047 | 0.001 ± 0.0071 | 0.012 ± 0.0028 | -0.0045 ± 0.016 | 0.019 ± 0.017 | -0.007 ± 0.011 | 0.0095 ± 0.019 |
| MyoF:Collagen III | 0.0125 ± 0.037 | 0.02 ± 0.0057 | -0.0005 ± 0.0035 | -0.0455 ± 0.0021 | -0.0055 ± 0.022 | 0.003 ± 0.0071 | 0.0075 ± 0.005 | 0.0095 ± 0.018 | -0.0005 ± 0.03 | 0.009 ± 0.0099 | -0.029 ± 0.021 | -0.0335 ± 0.036 | -0.0145 ± 0.0092 | -0.007 ± 0.017 | -0.005 ± 0.018 | 0.005 ± 0.017 | -0.0145 ± 0.013 | -0.005 ± 0.0071 |
| MyoF:Collagen IV | 0.014 ± 0.02 | 0.035 ± 0.0085 | 0.0215 ± 0.0035 | 0.0065 ± 0.033 | -0.01 ± 0.023 | 0.0025 ± 0.0078 | 0.0205 ± 0.022 | 0.0015 ± 0.015 | 0.023 ± 0.025 | 0.0235 ± 0.018 | -0.051 ± 0.12 | -0.0655 ± 0.054 | -0.0655 ± 0.064 | -0.0165 ± 0.042 | -0.0015 ± 0.026 | -0.0035 ± 0.00071 | -0.0215 ± 0.04 | -0.0235 ± 0.028 |
